Where two headings read alike, the source gives them in different places.
Legend:
Assay in all cases: KINOMEscan ScanTK
Format in all cases: binding
PYK2 = target: T1, PYK2 (Homo sapiens, UniProt Q14289)
T1 construct: purchased Eurofins DiscoverX KINOMEscan (scanTK)

EPHA6 = target: T2, EPHA6 (Homo sapiens, UniProt Q9UF33)
T2 construct: purchased Eurofins DiscoverX KINOMEscan (scanTK)
T2 sequence (Q9UF33 23-1036): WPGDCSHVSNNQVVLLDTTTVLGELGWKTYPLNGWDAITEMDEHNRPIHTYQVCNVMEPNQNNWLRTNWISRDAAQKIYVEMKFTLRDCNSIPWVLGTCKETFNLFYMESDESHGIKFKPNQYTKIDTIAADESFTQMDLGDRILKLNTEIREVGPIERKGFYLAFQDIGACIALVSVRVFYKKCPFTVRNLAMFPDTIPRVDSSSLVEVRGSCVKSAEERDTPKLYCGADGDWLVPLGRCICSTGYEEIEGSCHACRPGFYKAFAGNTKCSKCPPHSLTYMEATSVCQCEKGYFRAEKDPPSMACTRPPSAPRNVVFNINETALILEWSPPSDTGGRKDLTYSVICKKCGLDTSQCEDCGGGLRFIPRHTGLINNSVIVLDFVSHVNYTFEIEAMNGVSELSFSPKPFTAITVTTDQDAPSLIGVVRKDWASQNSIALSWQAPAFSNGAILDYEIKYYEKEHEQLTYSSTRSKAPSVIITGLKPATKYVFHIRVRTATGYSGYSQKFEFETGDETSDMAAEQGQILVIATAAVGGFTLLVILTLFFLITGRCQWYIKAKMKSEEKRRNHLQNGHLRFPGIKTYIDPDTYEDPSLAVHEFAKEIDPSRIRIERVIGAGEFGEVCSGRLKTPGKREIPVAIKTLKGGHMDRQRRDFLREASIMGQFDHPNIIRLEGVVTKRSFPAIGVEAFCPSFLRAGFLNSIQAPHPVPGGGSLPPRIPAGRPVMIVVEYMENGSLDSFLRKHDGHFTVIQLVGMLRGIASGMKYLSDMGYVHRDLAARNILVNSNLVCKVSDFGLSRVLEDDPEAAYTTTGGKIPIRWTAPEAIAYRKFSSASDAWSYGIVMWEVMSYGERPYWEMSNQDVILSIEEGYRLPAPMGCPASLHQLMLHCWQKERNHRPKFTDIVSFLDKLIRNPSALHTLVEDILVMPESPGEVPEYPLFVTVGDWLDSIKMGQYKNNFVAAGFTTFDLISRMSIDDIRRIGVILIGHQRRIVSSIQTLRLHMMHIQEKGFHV

EPHA5 = target: T3, EPHA5 (Homo sapiens, UniProt P54756)
T3 construct: purchased Eurofins DiscoverX KINOMEscan (scanTK)

FER = target: T4, FER (Homo sapiens, UniProt P16591)
T4 construct: purchased Eurofins DiscoverX KINOMEscan (scanTK)

SRC = target: T5, SRC (Homo sapiens, UniProt P12931)
T5 construct: purchased Eurofins DiscoverX KINOMEscan (scanTK)

TNK2 = target: T6, TNK2 (Homo sapiens, UniProt Q07912)
T6 construct: purchased Eurofins DiscoverX KINOMEscan (scanTK)

[1] = target: T7, EGFR(L747-S752del, P753S) (Homo sapiens, UniProt P00533, DEL747-752/P753S)
T7 construct: purchased Eurofins DiscoverX KINOMEscan (scanTK)

AXL = target: T8, AXL (Homo sapiens, UniProt P30530)
T8 construct: purchased Eurofins DiscoverX KINOMEscan (scanTK)
T8 sequence (P30530 26-894): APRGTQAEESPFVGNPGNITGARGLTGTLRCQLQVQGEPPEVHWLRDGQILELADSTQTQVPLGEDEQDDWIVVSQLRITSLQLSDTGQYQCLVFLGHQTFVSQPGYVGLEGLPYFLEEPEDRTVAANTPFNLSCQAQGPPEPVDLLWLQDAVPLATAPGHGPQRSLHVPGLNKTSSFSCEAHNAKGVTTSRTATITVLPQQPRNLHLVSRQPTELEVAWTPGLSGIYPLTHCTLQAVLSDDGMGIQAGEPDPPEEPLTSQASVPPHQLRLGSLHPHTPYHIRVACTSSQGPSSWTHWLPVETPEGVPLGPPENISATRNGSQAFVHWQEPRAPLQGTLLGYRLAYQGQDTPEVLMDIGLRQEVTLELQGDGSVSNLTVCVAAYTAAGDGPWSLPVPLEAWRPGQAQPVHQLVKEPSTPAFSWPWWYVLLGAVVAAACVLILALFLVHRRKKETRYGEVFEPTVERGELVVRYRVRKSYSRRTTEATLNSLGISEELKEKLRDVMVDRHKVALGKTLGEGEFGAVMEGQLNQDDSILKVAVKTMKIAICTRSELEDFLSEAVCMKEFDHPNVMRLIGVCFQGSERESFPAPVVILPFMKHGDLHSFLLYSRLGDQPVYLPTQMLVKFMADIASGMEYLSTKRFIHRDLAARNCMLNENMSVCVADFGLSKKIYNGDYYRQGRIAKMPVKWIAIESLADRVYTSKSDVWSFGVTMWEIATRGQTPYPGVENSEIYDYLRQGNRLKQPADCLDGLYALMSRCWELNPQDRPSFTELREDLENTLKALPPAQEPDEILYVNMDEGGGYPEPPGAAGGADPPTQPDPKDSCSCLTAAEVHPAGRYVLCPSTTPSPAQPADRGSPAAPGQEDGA

ALK(L1196M) = target: T9, ALK(L1196M) (Homo sapiens, UniProt Q9UM73, L1196M)
T9 construct: purchased Eurofins DiscoverX KINOMEscan (scanTK)

[2] = target: T10, JAK2(JH1domain-catalytic) (Homo sapiens, UniProt O60674)
T10 construct: JAK2(JH1domain-catalytic); purchased Eurofins DiscoverX KINOMEscan (scanTK)

EGFR(G719S) = target: T11, EGFR(G719S) (Homo sapiens, UniProt P00533, G719S)
T11 construct: purchased Eurofins DiscoverX KINOMEscan (scanTK)

T9 sequence (Q9UM73 19-1620 L1196M): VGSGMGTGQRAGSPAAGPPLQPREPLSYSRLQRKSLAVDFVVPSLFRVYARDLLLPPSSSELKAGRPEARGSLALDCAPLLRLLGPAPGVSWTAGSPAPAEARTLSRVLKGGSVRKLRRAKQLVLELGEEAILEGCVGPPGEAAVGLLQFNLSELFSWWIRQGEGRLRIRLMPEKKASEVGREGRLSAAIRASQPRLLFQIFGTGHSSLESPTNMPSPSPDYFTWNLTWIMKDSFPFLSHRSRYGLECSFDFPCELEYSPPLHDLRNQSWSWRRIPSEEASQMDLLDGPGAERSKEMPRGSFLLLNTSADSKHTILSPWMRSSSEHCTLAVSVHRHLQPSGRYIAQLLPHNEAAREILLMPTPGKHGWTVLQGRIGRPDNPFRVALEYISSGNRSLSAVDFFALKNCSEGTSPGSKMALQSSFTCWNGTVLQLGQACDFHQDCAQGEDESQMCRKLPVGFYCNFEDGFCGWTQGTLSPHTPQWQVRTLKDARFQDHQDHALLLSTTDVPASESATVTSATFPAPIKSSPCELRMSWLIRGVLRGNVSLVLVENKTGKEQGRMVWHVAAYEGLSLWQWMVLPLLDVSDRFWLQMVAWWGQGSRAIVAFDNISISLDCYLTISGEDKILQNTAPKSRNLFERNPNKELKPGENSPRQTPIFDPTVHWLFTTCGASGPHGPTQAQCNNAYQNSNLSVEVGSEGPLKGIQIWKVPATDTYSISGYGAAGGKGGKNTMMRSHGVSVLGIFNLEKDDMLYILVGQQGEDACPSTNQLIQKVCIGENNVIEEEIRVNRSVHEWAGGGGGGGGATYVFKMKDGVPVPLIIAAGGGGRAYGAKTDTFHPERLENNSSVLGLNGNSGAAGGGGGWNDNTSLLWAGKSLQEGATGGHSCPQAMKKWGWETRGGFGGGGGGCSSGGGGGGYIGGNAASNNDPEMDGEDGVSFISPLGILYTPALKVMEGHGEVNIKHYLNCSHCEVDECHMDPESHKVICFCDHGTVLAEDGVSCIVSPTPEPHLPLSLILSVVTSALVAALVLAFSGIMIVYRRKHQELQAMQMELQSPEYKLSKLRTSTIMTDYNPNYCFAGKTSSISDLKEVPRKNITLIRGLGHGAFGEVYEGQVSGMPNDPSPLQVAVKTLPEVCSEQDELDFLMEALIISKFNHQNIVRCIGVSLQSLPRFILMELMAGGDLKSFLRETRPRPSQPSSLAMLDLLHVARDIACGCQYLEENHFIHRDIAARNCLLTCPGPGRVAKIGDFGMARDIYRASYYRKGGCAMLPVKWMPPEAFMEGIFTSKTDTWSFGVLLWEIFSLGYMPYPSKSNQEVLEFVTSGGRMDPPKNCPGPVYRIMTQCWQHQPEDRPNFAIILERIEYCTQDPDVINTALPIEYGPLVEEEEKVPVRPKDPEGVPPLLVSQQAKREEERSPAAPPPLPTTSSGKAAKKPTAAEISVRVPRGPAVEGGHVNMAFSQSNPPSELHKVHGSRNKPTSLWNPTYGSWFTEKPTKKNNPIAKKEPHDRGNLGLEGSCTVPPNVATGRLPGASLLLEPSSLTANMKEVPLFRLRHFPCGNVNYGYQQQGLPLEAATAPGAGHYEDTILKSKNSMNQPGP
T7 sequence (P00533 with tags, fused parts or gaps DEL747-752/P753S limits assumed): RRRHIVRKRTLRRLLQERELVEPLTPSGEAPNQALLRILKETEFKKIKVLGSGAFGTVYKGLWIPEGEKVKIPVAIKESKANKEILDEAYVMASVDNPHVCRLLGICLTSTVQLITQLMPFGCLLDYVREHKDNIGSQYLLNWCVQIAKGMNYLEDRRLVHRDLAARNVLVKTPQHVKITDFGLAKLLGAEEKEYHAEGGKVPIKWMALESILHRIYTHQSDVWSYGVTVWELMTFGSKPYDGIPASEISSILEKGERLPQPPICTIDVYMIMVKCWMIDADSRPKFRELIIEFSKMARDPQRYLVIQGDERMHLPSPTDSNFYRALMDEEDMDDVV
T4 sequence (P16591 whole entry): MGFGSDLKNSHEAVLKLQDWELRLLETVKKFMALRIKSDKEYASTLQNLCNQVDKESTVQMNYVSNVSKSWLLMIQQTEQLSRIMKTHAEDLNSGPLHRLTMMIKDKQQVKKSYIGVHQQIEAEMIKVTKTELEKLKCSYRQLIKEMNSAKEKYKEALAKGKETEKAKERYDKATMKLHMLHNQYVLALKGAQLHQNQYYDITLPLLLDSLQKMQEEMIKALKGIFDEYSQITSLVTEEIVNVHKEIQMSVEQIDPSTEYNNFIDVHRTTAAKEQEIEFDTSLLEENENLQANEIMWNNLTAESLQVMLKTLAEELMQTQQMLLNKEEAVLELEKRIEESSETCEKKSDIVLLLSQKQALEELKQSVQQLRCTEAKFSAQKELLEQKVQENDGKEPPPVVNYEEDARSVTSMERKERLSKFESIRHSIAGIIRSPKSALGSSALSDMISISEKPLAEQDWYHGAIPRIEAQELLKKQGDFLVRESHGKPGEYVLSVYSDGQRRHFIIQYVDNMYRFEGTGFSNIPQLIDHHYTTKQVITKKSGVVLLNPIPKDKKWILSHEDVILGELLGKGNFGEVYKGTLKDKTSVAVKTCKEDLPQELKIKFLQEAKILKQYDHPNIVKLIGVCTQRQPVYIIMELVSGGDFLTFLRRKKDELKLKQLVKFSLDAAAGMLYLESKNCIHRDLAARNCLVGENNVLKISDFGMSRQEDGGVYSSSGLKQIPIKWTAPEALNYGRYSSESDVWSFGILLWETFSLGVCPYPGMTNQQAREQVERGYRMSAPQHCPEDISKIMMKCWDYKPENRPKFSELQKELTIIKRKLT
T1 sequence (Q14289 whole entry): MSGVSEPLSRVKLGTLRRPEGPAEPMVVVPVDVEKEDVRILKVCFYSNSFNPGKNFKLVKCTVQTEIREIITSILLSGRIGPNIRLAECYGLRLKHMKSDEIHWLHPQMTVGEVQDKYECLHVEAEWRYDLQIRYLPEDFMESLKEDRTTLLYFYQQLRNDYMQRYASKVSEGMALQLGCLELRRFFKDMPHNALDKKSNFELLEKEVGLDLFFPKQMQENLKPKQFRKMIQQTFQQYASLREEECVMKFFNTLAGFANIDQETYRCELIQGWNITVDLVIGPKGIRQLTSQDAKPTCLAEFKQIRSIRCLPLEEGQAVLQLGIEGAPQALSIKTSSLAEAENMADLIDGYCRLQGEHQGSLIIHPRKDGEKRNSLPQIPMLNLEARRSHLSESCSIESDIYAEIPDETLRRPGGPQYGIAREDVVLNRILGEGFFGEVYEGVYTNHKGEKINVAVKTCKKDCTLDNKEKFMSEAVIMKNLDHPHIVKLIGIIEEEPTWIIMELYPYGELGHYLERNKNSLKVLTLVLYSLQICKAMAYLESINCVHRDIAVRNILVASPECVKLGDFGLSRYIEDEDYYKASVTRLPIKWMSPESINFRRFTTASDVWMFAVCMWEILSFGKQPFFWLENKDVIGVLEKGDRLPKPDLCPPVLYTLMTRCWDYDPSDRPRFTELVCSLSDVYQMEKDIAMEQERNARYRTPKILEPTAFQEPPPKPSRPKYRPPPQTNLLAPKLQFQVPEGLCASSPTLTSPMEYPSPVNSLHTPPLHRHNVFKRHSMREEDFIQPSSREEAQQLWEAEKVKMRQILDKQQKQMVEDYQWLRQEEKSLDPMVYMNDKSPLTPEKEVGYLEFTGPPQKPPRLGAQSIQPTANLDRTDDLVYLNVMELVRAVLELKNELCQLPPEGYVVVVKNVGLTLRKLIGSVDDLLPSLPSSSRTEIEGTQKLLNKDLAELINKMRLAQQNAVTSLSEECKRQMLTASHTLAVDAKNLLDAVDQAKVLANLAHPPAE
T5 sequence (P12931 whole entry): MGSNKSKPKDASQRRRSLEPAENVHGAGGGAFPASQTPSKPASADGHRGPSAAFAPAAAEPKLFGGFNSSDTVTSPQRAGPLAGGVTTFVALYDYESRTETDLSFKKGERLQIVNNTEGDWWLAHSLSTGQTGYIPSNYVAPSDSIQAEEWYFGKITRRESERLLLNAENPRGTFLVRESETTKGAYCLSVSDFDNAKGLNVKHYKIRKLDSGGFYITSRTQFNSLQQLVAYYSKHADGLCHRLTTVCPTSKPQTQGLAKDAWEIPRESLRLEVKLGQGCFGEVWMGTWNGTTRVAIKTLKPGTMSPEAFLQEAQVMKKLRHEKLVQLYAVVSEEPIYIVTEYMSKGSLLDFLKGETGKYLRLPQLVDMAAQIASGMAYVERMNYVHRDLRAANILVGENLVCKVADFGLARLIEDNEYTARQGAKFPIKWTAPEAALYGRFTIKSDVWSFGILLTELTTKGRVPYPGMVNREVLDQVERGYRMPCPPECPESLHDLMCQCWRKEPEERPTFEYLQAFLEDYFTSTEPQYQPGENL
T10 sequence (O60674 849-1132 limits assumed): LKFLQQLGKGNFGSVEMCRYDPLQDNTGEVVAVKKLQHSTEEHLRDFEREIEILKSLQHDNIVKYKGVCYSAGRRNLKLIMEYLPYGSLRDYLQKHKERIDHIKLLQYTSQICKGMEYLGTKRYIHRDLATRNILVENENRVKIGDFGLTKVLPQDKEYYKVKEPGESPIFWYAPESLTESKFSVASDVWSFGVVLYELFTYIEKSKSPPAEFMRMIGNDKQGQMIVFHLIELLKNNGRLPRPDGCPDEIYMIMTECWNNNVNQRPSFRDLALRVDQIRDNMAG

SMILES | remaining binding at 1 µM (PYK2; @1000nM, read-out: %Control) | remaining binding at 1 µM (PYK2; read-out: %Control @1000nM) | difference in %Control from compound Ib at 1 µM (EPHA6; @1000nM) | remaining binding at 1 µM (EPHA6; @1000nM, read-out: %Control) | remaining binding at 1 µM (EPHA6; read-out: %Control @1000nM) | difference in %Control from compound Ib at 1 µM (EPHA5; @1000nM) | remaining binding at 1 µM (EPHA5; @1000nM, read-out: %Control) | remaining binding at 1 µM (EPHA5; read-out: %Control @1000nM) | difference in %Control versus compound Ib at 1 µM (FER; @1000nM) | remaining binding at 1 µM (FER; @1000nM, read-out: %Control) | remaining binding at 1 µM (FER; read-out: %Control @1000nM) | remaining binding at 1 µM (SRC; @1000nM, read-out: %Control) | remaining binding at 1 µM (SRC; read-out: %Control @1000nM) | remaining binding at 1 µM (TNK2; @1000nM, read-out: %Control) | remaining binding at 1 µM (TNK2; read-out: %Control @1000nM) | difference in %Control versus compound Ib at 1 µM ([1]; @1000nM) | remaining binding at 1 µM ([1]; @1000nM, read-out: %Control) | remaining binding at 1 µM ([1]; read-out: %Control @1000nM) | difference in %Control versus compound Ib at 1 µM (AXL; @1000nM) | remaining binding at 1 µM (AXL; @1000nM, read-out: %Control) | other results
CNC(=O)c1cnc(S(C)(=O)=O)nc1N1CCCC(n2nc(-c3ccc(Oc4ccccc4)cc3)c3c(N)ncnc32)C1 (stereo not drawn) [Compound 8d, 4-(3-(4-Amino-3-(4-phenoxyphenyl)-1H-pyrazolo[3,4-d]pyrimidin-1-yl)piperidin-1-yl)-N-methyl-2-(methylsulfonyl)pyrimidine-5-carboxamide] | 100% | 100% | 20% | 97% | 97% | 4% | 100% | 100% | 0% | 100% | 100% | 43% | 43% | 100% | 100% | 36.5% | 42% | 42% | 22% | 97% | remaining binding at 1 µM (AXL; read-out: %Control @1000nM): 97%; difference in % of control vs compound Ib at 1 µM (ALK(L1196M); @1000nM): -21%; remaining binding at 1 µM (ALK(L1196M); @1000nM, read-out: %Control): 79%; remaining binding at 1 µM (ALK(L1196M); read-out: %Control @1000nM): 79%; difference in %Control vs compound Ib at 1 µM ([2]; @1000nM): -14%; remaining binding at 1 µM ([2]; @1000nM, read-out: %Control): 86%; remaining binding at 1 µM ([2]; read-out: %Control @1000nM): 86%; difference in %Control from compound Ib at 1 µM (EGFR(G719S); @1000nM): 77.4%; remaining binding at 1 µM (EGFR(G719S); @1000nM, read-out: %Control): 78%; remaining binding at 1 µM (EGFR(G719S); read-out: %Control @1000nM): 78%
CCOC(=O)c1cnc(S(C)(=O)=O)nc1N1CCC[C@@H](n2nc(-c3ccc(Oc4ccccc4)cc3)c3c(N)ncnc32)C1 [Compound 8c, Ethyl (R)-4-(3-(4-Amino-3-(4-phenoxyphenyl)-1H-pyrazolo[3,4-d]pyrimidin-1-yl)piperidin-1-yl)-2-(methylsulfonyl)pyrimidine-5-carboxylate] | 81% | 81% | 10% | 87% | 87% | 4% | 100% | 100% | 0% | 100% | 100% | 66% | 66% | 94% | 94% | 94.5% | 100% | 100% | 25% | 100% | remaining binding at 1 µM (AXL; read-out: %Control @1000nM): 100%; difference in % of control vs compound Ib at 1 µM (ALK(L1196M); @1000nM): -23%; remaining binding at 1 µM (ALK(L1196M); @1000nM, read-out: %Control): 77%; remaining binding at 1 µM (ALK(L1196M); read-out: %Control @1000nM): 77%; difference in %Control vs compound Ib at 1 µM ([2]; @1000nM): -17%; remaining binding at 1 µM ([2]; @1000nM, read-out: %Control): 83%; remaining binding at 1 µM ([2]; read-out: %Control @1000nM): 83%; difference in %Control from compound Ib at 1 µM (EGFR(G719S); @1000nM): 93.4%; remaining binding at 1 µM (EGFR(G719S); @1000nM, read-out: %Control): 94%; remaining binding at 1 µM (EGFR(G719S); read-out: %Control @1000nM): 94%
